Experiments:
Type in all cases: functional
[1] = test system: Leptinotarsa decemlineata; assay: Insecticidal activity against second-instar larval stage of Leptinotarsa decemlineata infested potato leaves assessed as mortality at 10 ul after 12 hr relative to control
[2] = test system: Leptinotarsa decemlineata; assay: Insecticidal activity against third-instar larval stage of Leptinotarsa decemlineata infested potato leaves assessed as mortality at 20 ul after 96 hr (reference value: 3.3 +/- 3.3%)
[3] = test system: Leptinotarsa decemlineata; assay: Insecticidal activity against third-instar larval stage of Leptinotarsa decemlineata infested potato leaves assessed as mortality at 10 ul after 96 hr (reference value: 3.3 +/- 3.3%)
[4] = test system: Leptinotarsa decemlineata; assay: Insecticidal activity against third-instar larval stage of Leptinotarsa decemlineata infested potato leaves assessed as mortality at 20 ul after 24 hr relative to control
[5] = test system: Leptinotarsa decemlineata; assay: Insecticidal activity against adult Leptinotarsa decemlineata infested potato leaves assessed as mortality at 20 ul after 48 hr relative to control
[6] = test system: Leptinotarsa decemlineata; assay: Insecticidal activity against second-instar larval stage of Leptinotarsa decemlineata infested potato leaves assessed as mortality at 10 ul after 96 hr (reference value: 3.3 +/- 3.3%)
[7] = test system: Leptinotarsa decemlineata; assay: Insecticidal activity against adult Leptinotarsa decemlineata infested potato leaves assessed as mortality at 20 ul after 12 hr relative to control
[8] = test system: Leptinotarsa decemlineata; assay: Insecticidal activity against second-instar larval stage of Leptinotarsa decemlineata infested potato leaves assessed as mortality at 20 ul after 96 hr (reference value: 3.3 +/- 3.3%)
[9] = test system: Leptinotarsa decemlineata; assay: Insecticidal activity against second-instar larval stage of Leptinotarsa decemlineata infested potato leaves assessed as mortality at 10 ul after 24 hr (reference value: 3.3 +/- 3.3%)
[10] = test system: Leptinotarsa decemlineata; assay: Insecticidal activity against adult Leptinotarsa decemlineata infested potato leaves assessed as mortality at 20 ul after 24 hr relative to control
[11] = test system: Leptinotarsa decemlineata; assay: Insecticidal activity against second-instar larval stage of Leptinotarsa decemlineata infested potato leaves assessed as mortality at 20 ul after 24 hr (reference value: 3.3 +/- 3.3%)
[12] = test system: Leptinotarsa decemlineata; assay: Insecticidal activity against second-instar larval stage of Leptinotarsa decemlineata infested potato leaves assessed as mortality at 20 ul after 12 hr relative to control
[13] = test system: Leptinotarsa decemlineata; assay: Insecticidal activity against adult Leptinotarsa decemlineata infested potato leaves assessed as mortality at 10 ul after 12 hr relative to control
[14] = test system: Leptinotarsa decemlineata; assay: Insecticidal activity against adult Leptinotarsa decemlineata infested potato leaves assessed as mortality at 10 ul after 48 hr relative to control
[15] = test system: Leptinotarsa decemlineata; assay: Insecticidal activity against first-instar larval stage of Leptinotarsa decemlineata infested potato leaves assessed as mortality at 10 ul after 24 hr relative to control
[16] = test system: Leptinotarsa decemlineata; assay: Insecticidal activity against first-instar larval stage of Leptinotarsa decemlineata infested potato leaves assessed as mortality at 10 ul after 48 hr relative to control
[17] = test system: Leptinotarsa decemlineata; assay: Insecticidal activity against first-instar larval stage of Leptinotarsa decemlineata infested potato leaves assessed as mortality at 20 ul after 24 hr relative to control
[18] = test system: Leptinotarsa decemlineata; assay: Insecticidal activity against second-instar larval stage of Leptinotarsa decemlineata infested potato leaves assessed as mortality at 10 ul after 48 hr (reference value: 3.3 +/- 3.3%)
[19] = test system: Leptinotarsa decemlineata; assay: Insecticidal activity against first-instar larval stage of Leptinotarsa decemlineata infested potato leaves assessed as mortality at 20 ul after 96 hr relative to control
[20] = test system: Leptinotarsa decemlineata; assay: Insecticidal activity against adult Leptinotarsa decemlineata infested potato leaves assessed as mortality at 10 ul after 24 hr relative to control
[21] = test system: Leptinotarsa decemlineata; assay: Insecticidal activity against third-instar larval stage of Leptinotarsa decemlineata infested potato leaves assessed as mortality at 10 ul after 12 hr relative to control
[22] = test system: Leptinotarsa decemlineata; assay: Insecticidal activity against first-instar larval stage of Leptinotarsa decemlineata infested potato leaves assessed as mortality at 10 ul after 12 hr relative to control
[23] = test system: Leptinotarsa decemlineata; assay: Insecticidal activity against first-instar larval stage of Leptinotarsa decemlineata infested potato leaves assessed as mortality at 20 ul after 12 hr relative to control
[24] = test system: Leptinotarsa decemlineata; assay: Insecticidal activity against third-instar larval stage of Leptinotarsa decemlineata infested potato leaves assessed as mortality at 10 ul after 48 hr (reference value: 3.3 +/- 3.3%)
[25] = test system: Leptinotarsa decemlineata; assay: Insecticidal activity against second-instar larval stage of Leptinotarsa decemlineata infested potato leaves assessed as mortality at 20 ul after 48 hr (reference value: 3.3 +/- 3.3%)
[26] = test system: Leptinotarsa decemlineata; assay: Insecticidal activity against adult Leptinotarsa decemlineata infested potato leaves assessed as mortality at 20 ul after 96 hr relative to control
[27] = test system: Leptinotarsa decemlineata; assay: Insecticidal activity against adult Leptinotarsa decemlineata infested potato leaves assessed as mortality at 10 ul after 96 hr relative to control
[28] = test system: Leptinotarsa decemlineata; assay: Insecticidal activity against first-instar larval stage of Leptinotarsa decemlineata infested potato leaves assessed as mortality at 10 ul after 96 hr relative to control
[29] = test system: Leptinotarsa decemlineata; assay: Insecticidal activity against third-instar larval stage of Leptinotarsa decemlineata infested potato leaves assessed as mortality at 10 ul after 24 hr relative to control
[30] = test system: Leptinotarsa decemlineata; assay: Insecticidal activity against third-instar larval stage of Leptinotarsa decemlineata infested potato leaves assessed as mortality at 20 ul after 48 hr (reference value: 3.3 +/- 3.3%)
[31] = test system: Leptinotarsa decemlineata; assay: Insecticidal activity against first-instar larval stage of Leptinotarsa decemlineata infested potato leaves assessed as mortality at 20 ul after 48 hr relative to control
[32] = test system: Leptinotarsa decemlineata; assay: Insecticidal activity against third-instar larval stage of Leptinotarsa decemlineata infested potato leaves assessed as mortality at 20 ul after 12 hr relative to control

Row | SMILES | mortality [1] [%] | mortality [2] [%] | mortality [3] [%] | mortality [4] [%] | mortality [5] [%] | mortality [6] [%] | mortality [7] [%] | mortality [8] [%] | mortality [9] [%] | mortality [10] [%] | mortality [11] [%] | mortality [12] [%] | mortality [13] [%] | mortality [14] [%] | mortality [15] [%] | mortality [16] [%] | mortality [17] [%] | mortality [18] [%] | mortality [19] [%] | mortality [20] [%] | other results
1 | C=C1CCC2CC1C2(C)C (stereo not drawn) [BETA-PINENE] | 56.7 | 100 | 100 | 100 | 100 | 100 | 80 | 86.7 | 76.7 | 96.7 | 70 | 20 | 100 | 100 | 66.7 | 96.7 | 100 | 90 | 100 | 100 | mortality [21]: 80%; mortality [22]: 43.3%; mortality [23]: 66.7%; mortality [24]: 100%; mortality [25]: 80%; mortality [26]: 100%; mortality [27]: 100%; mortality [28]: 100%; mortality [29]: 83.3%; mortality [30]: 100%; mortality [31]: 100%; mortality [32]: 100%
2 | C=CC(C)CCC=C(C)C (stereo not drawn) [BETA-CITRONELLENE] | 43.3 | 93.3 | 100 | 80 | 83.3 | 100 | 53.3 | 100 | 96.7 | 76.7 | 100 | 66.7 | 40 | 73.3 | 86.7 | 100 | 100 | 100 | 100 | 73.3 | mortality [21]: 80%; mortality [22]: 30%; mortality [23]: 76.7%; mortality [24]: 100%; mortality [25]: 100%; mortality [26]: 90%; mortality [27]: 76.7%; mortality [28]: 100%; mortality [29]: 93.3%; mortality [30]: 93.3%; mortality [31]: 100%; mortality [32]: 50%
